Read-outs that look alike come from different tables or passages of the source. Where a SMILES comes first, the peptide text is derived from it. [ ]: non-standard residue; d: D form. The star is where a group is joined. Fmoc = O=C(OCC1c2ccccc2-c2ccccc21)*; 12Ado = NCCCCCCCCCCCC(=O)O; StBu = CC(C)(C)S*
Test: MTT assay, cytotoxicity of the peptide
Type: cell-based
Settings: read-out: cell viability
Description: MTT assay was applied to evaluate the cytotoxicity effect of the peptide on HeLa, MCF-7, SK-N-MC, HEK293 and RAW264.7 cells (FIG. 12).

Measured: viability

CC(C)[C@H](NC(=O)[C@H](CCCCN)NC(=O)[C@H](CCCCN)NC(=O)[C@H](CCCCN)NC(=O)[C@H](CCCCN)NC(=O)[C@H](CCCCN)NC(=O)[C@@H]1CCCN1C(=O)OCC1c2ccccc2-c2ccccc21)C(=O)NCC(=O)N[C@@H](Cc1c[nH]cn1)C(=O)N[C@@H](Cc1c[nH]cn1)C(=O)N[C@@H](Cc1c[nH]cn1)C(=O)N[C@@H](Cc1c[nH]cn1)C(=O)NCCCCCCCCCCCC(=O)N[C@@H](CSSC(C)(C)C)C(=O)N[C@@H](Cc1c[nH]cn1)C(=O)N[C@@H](Cc1c[nH]cn1)C(=O)N[C@@H](CSSC(C)(C)C)C(=O)N[C@@H](CSSC(C)(C)C)C(=O)N[C@@H](Cc1c[nH]cn1)C(=O)N[C@@H](Cc1c[nH]cn1)C(=O)N[C@@H](CSSC(C)(C)C)C(=O)NCC(=O)N[C@@H](CO)C(=O)N1CCC[C@H]1C(=O)N[C@@H](Cc1c[nH]cn1)C(=O)N[C@@H](Cc1c[nH]cn1)C(=O)N[C@@H](CC(=O)O)C(=O)O [peptide_13, Fmoc-PKKKKKVG-HHHH (SEQ ID NO: 31)-C12-CstBuHHCstBuCstBuHHCstBuGSPHHD (SEQ ID NO: 39)] (Fmoc-PKKKKKVGHHHH[12Ado]C(StBu)HHC(StBu)C(StBu)HHC(StBu)GSPHHD-OH; C-terminus assumed)
> 80%: human, HEK293 cells, peptide concentration up to 4 μM | human, HeLa cells, peptide concentration up to 8 μM | human, MCF-7 cells, peptide concentration up to 8 μM | human, SK-N-MC cells, peptide concentration up to 4 μM | mouse, RAW264.7 cells, peptide concentration up to 4 μM

Source: patent US20250297035A1, “A PEPTIDE AND THE SELECTION METHOD THEREOF” (THE HONG KONG UNIVERSITY OF SCIENCE AND TECHNOLOGY, priority 2021, published 2025)
